How the values were obtained:
in vivo = details: mouse
Excerpt: The compounds of formulae I and II and salts thereof can be utilized to treat patients suffering from rheumatoid arthritis and related disorders.

[1] = test system: adjuvant arthritis in the rat; experiment: Developing adjuvant arthritis in the rat; format: in vivo, AHH/R Female rats (PVG derived); details: for Joint Mobility (% INC) / Lesion Score (% RDN): day 15; for % reduction of paw swelling, Primary (right): days 0-4; for % reduction of paw swelling, Secondary (left) / % reduction of paw swelling, Secondary (right): days 8-15
Procedure: AHH/R Female rats (PVG derived with an initial weight range of 110 to 140 g. were used.
Adjuvant for injection. An homogenized suspension of heat killed M tuberculosis (Human strains C, DT and PN), 5 mg.Ml^-1 in liquid paraffin was prepared.
Rats were randomly split into groups of five and adjuvant arthritis was induced by the sub-plantar injection of 0.1 ml of adjuvant suspension into the right hind paw of each rat. Test compounds were administered by intubation each morning commencing the day of adjuvant injection. Two groups of control rats were dosed with the vehicle as was a group of three normal rats included for comparative purposes. Dosing was carried out daily until the end of the test on day 15 except for the first weekend (days 5 & 6). Treatment groups are shown in Table III and include etretinate as standard retinoid.
Measurements of right hind paw volume were made initially and on days 2 and 4 after and adjufant injection (primary phase). Right and left hind paw volume were then measured, on day 8 and every two or three days until the end of the experiment on day 15 (secondary phase). At this time the mobility of each ankle joint and the incidence and severity of secondary lesions on nose, ears, forepaws, left hind paw and tail were also assessed in terms of degrees of flexion possible and by using an arbitrary scoring system, respectively.
The time course curves for the injected paws were integrated from days 0 to 4 to reflect primary swelling and from days 8 to 15 (secondary swelling). The secondary swelling in the non-injected paw was integrated similarly from days 8 to 15. Calculations were carried out using a specific computer program which computed mean ± se for each integrated area. The significance of differences from controls was determined by Student's t test (2 tailed) and percentage reductions from control areas were calculated. Percentage improvements in joint mobility and percentage reductions in lesion score were also determined. In the latter case the Wilcoxon rank sum test (2 tailed) was used to express the difference from the control score using raw data. Mean body weight change in each group was recorded.

[2] = test system: type II collagen arthritis in rats; experiment: Established type II collagen arthritis; format: in vivo, Male and female Alderley Park Strain 1 rats; details: for Paw Vol / wt / GAG (urine glycosaminoglycans): 100 mg.kg^-1 p.o.
Procedure: Male and female Alderley Park Strain 1 rats.
Type 2 collagen (prepared from bovine nasal septum cartilage), Freunds incomplete adjuvant (Difco).
Rats were sensitized to type 2 collagen by injecting them intradermally with 1 ml. of a water in oil emulsion consisting of equal parts of a 1 mg.ml^-1 solution of type 2 collagen in 0.45M NaCl, 0.02M Tris, pH 7.4 and Freunds incomplete adjuvant. Rats developing arthritis were allocated on day 15 post sensitization to a control arachis oil treated group (6 male, 4 female) or to the Compound A treated group (6 male, 5 female). Hind paw volume measurements were taken to ensure even distribution of rats between groups. An overnight collection of urine was made on days 15/16 and dosing commenced on day 16. These urine samples were analyzed for glycosaminoglycans (GAG). Compound A was dosed at 100 mg.kg^-1 p.o. On days 19/20 a second overnight collection of urine was made. These urine samples were analyzed for glycosaminoglycans (GAG). On day 20 a second hind paw measurement was taken. Rats were then anaesthetised with sodium pentobarbitone, bled, killed and X-rays taken of hind and forepaws. Rats were dosed on days 16-19 inclusive (4 doses).

[3] = test system: impregnated sponge granuloma in the rat; experiment: Impregnated sponge granuloma test in the rat; format: in vivo, AHH/R female rats (PVG derived)
Procedure: AHH/R female rats (PVG derived) with an initial weight range of 120-140 g. were used.
Sponge preparation. Pellets (6.5 mm diameter) were punched from cellulose sponge cloth ("Wettex") and 0.1 ml. of a suspension containing 0.5 mg.ml^-1 of heat killed M. tuberculosis (human strains C, DT and PN) in sterile saline was applied to each pellet. The pellets were dried, weighed and autoclaved.
Rats were randomly divided into groups of five and daily dosing with test compounds was commenced. After the fifth dose the rats were anaesthetised with Sagatal (45 mg.kg^-1 i.p.) the backs were shaved and two pellets were implanted subcutaneously (one each side) into each rat through a small dorsal midline incision. The incision was closed and the rats allowed to recover from the anaesthetic.
Seven days after implantation the rats were killed and the pellets were removed, dissected free of extraneous tissue and weighed. Each pellet was then placed in a 4 ml aliquot of distilled water, chopped with fine scissors and sonicated. After centrifugation the Na^+ and K^+ content of the supernatant was determined by flame photometry. In addition the adrenal and thumus glands from each rat were dissected out and weighed and the lower hind limbs were removed for measurement of tibial bone breaking strain. Body weights were also recorded throughout the test period.
The mean ± SE for each of the parameters was calculated and differences from the control values were determined by Student's t test (2-tailed). Percentage reductions of granuloma weight, Na^+ and K^+ content and percentage changes of adrenal and thymus, weight and tibial breaking strain were determined.

[4] = test system: established adjuvant arthritis in rats; experiment: Effect on the course of established adjuvant arthritis; format: in vivo, Male Lewis rats from Charles River; details: 100 mg/kg, 7 days
Procedure: Male Lewis rats from Charles River were used for these experiments.
Heat-killed, dessicated Mycobacteriam butyricum.
Adjuvant arthritis was induced by the injection of 0.1 ml of adjuvant [a suspension of heat-killed, dessicated Mycobacterium butyricum, 0.5% CW/V) in heavy mineral oil containing 0.2% digitonin] into the base of the tail. The arthritis was allowed to develop for 21 days and then the volume of both hind paws were measured using a mercury plethysmograph. The rats were divided into groups of 8 with equal mean paw volumes and then the rats were treated with Compound A, indomethacin (as a control drug), or vehicle for 7 days at the end of the treatment period, the volumes of both hind paws were again measured to assess antiinflammatory effects. Body weight changes were also followed and, at the end of the experiment, plasma was collected for determination of plasma fibrinogen (Exner et. al., Amer. J. Clin. Path, 71: 521-527).
^b Drugs were administered once a day for 7 days by intubation
^c Change in paw volume/body weight equals paw volume body weight on […]

CCCCCCCCCOc1ccccc1/C=C/C(C)=C/C=C/C(C)=C/C(=O)O [Compound A, All(E)-9-[2(nonyloxy)phenyl]-3,7-dimethyl-2,4,6,8-nonatetraenoic acid]
LD50 (in vivo; ip): > 1000 mg/kg
LD50 (in vivo; po): > 1000 mg/kg
Joint Mobility (% INC) ([1]; 15 mg.kg^-1 p.o.): 66%
Lesion Score (% RDN) ([1]; 15 mg.kg^-1 p.o.): 72%
% reduction of paw swelling, Primary (right) ([1]; 15 mg.kg^-1 p.o.): -6%
% reduction of paw swelling, Secondary (left) ([1]; 15 mg.kg^-1 p.o.): 94%
% reduction of paw swelling, Secondary (right) ([1]; 15 mg.kg^-1 p.o.): 30%
Joint Mobility (% INC) ([1]; 45 mg.kg^-1 p.o.): 66%
Lesion Score (% RDN) ([1]; 45 mg.kg^-1 p.o.): 65%
% reduction of paw swelling, Primary (right) ([1]; 45 mg.kg^-1 p.o.): 16%
% reduction of paw swelling, Secondary (left) ([1]; 45 mg.kg^-1 p.o.): 75%
% reduction of paw swelling, Secondary (right) ([1]; 45 mg.kg^-1 p.o.): 51%
Paw Vol ([2]; day 16 (start of dosing)): 2.44 ± 0.08
wt ([2]; day 16 (start of dosing)): 247 ± 14 g
GAG (urine glycosaminoglycans) ([2]; day 16 (urine days 15/16)): 1586 ± 307 µg
GAG (urine glycosaminoglycans) ([2]; day 20 (urine days 19/20)): 634 ± 72 µg
Paw Vol ([2]; day 20, after 4 doses): 2.66 ± 0.06
wt ([2]; day 20, after 4 doses): 229 ± 10 g
weight during treatment (in words) ([2]; male and female rats, 100 mg.kg^-1): lost weight
% reduction of granuloma K+ ([3]; 15 mg.kg^-1 p.o.): -6.9%
% reduction of granuloma Na+ ([3]; 15 mg.kg^-1 p.o.): 14.5%
% reduction of granuloma Wet weight ([3]; 15 mg.kg^-1 p.o.): 15.1%
% reduction of granuloma K+ ([3]; 45 mg.kg^-1 p.o.): 0.8%
% reduction of granuloma Na+ ([3]; 45 mg.kg^-1 p.o.): 11%
% reduction of granuloma Wet weight ([3]; 45 mg.kg^-1 p.o.): 10.8%
Plasma Fibrinogen [4]: 874 ± 57 mg/dL
Change in Body Weight ([4]; day 28 minus day 22): 5.2 ± 2.1 g
Change in Paw Volume ([4]; day 28 minus day 22, both hind paws): -0.96 ± 0.10 mL

Reference: patent publication US4648996A, “Phenyl substituted-2,4,6,8-nonatetraenoic acid” (Hoffmann-La Roche Inc., priority 1985, dated 1987)
